Data reported in publication PMC10131537, “Degradation of neurodegenerative disease-associated TDP-43 aggregates and oligomers via a proteolysis-targeting chimera” (Journal of Biomedical Science, 2023).

Molecular target: T1, cereblon (CRBN) (Homo sapiens, UniProt Q96SW2)
T1 construct: GST-tagged human cereblon/DDB1, co-expressed by baculovirus; with DDB1
Assay: competitive TR-FRET binding assay versus XL-665-labelled thalidomide

**Q.** Which EC50 does the source give for CN(C)c1ccc(-c2nc3ccc(OCCOCCOCCNc4cccc5c4C(=O)N(C4CCC(=O)NC4=O)C5=O)cc3s2)cc1 (stereo not shown) [compound 2, 4-((2-(2-(2-((2-(4-(Dimethylamino)phenyl)benzo[d]thiazol-6-yl)oxy)ethoxy)ethoxy)ethyl)amino)-2-(2,6-dioxopiperidin-3-yl)isoindoline-1,3-dione] here?
**A.** 600 nM
